Test results from patent US20240000828A1 (priority 2020, published 2024).
“And” between values parts separate entries of the source, which are not always exact repeats. Equal entries are not always repeated. Where two headings read alike, the source gives them in different places.

How the values were obtained:
[1] = tested on: SARS-CoV-2 (MEX-BC2/2020); experiment: Live SARS-CoV-2 CPE-based antiviral assay in Vero E6 cells (neutral red uptake); format: cell-based
[2] = tested on: Vero E6 cells; settings: for Viability of Uninfected Vero E6 Cells (% Vehicle): 4-day treatment; for Viability of Uninfected Vero E6 Cells (A540): 4 days, individual replicates
[3] = tested on: influenza A/California/07/2009 (H1N1); experiment: microbe, parasite or virus in culture; format: cell-based, Influenza A Virus
[4] = tested on: A549 cells
[5] = target: glycoprotein B-2 (gpB-2) (Human herpesvirus 2, UniProt P08666); settings: cited from earlier work
[6] = tested on: gp120; settings: by binding gp120; cited from earlier work
[7] = tested on: Ebola virus; settings: cited from earlier work

Chain of glycoprotein B-2 (gpB-2) (P08666 23-904 limits assumed): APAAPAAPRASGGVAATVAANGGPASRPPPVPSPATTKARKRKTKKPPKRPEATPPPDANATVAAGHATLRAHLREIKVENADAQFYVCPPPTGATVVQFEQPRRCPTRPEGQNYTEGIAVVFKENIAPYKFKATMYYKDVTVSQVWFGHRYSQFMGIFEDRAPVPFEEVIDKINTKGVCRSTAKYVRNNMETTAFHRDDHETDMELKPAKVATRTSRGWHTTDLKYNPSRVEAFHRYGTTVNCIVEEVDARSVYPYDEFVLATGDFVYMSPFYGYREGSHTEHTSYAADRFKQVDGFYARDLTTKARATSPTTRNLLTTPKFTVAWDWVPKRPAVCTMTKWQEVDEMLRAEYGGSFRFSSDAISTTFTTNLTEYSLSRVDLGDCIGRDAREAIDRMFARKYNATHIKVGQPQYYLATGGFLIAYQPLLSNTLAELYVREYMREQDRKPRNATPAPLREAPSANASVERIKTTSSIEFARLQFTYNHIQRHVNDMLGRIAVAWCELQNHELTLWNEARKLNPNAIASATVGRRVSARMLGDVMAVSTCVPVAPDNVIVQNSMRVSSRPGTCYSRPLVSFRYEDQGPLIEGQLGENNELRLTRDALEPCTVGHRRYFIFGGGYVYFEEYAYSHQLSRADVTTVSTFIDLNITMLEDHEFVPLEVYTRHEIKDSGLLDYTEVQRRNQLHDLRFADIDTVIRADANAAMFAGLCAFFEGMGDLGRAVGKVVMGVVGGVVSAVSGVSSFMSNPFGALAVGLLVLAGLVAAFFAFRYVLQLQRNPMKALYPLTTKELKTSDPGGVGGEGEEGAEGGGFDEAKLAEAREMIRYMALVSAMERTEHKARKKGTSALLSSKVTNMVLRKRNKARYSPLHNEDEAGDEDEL

With CCN(CC)CCCC(C)Nc1ccnc2cc(Cl)ccc12 (centres unmarked) [CQ, chloroquine diphosphate] the “Absorbance (540 nm), SARS-CoV-2-induced CPE” value [1] was 0.985 and 1.011, the “Inhibition of SARS-CoV-2 (MEX-BC2/2020) Virus-Induced CPE (%)” value (“Inhibition … (%)” for short) ([1]; 5 μM, positive control wells) was 61.8 ± 2.5% and the “Viability of Uninfected Vero E6 Cells (% Vehicle)” value ([2]; 5 μM) was 75.9 ± 2.6%. For the same molecule, the “Viability of Uninfected Vero E6 Cells (A540)” value (“Viability … (A540)” for short) ([2]; 5 μM) was 1.206 and 1.262.
In the case of O=C1c2c(O)c(=O)ccn2N([C@@H]2c3ccccc3SCc3c2ccc(F)c3F)[C@@H]2COCCN12 [Baloxavir, baloxavir], the “IAV Infectivity in A549 Cells (% Vehicle)” value ([3]; 0.01 nM, single data point) is reported as 95.3%, the “IVA Infectivity in A549 Cells (Absorbance 490 nm)” value (“IVA Infectivity in A549 Cells” below) ([3]; 0.01 nM, single data point) is reported as 1.064 and the “IAV Infectivity in A549 Cells (% Vehicle)” value ([3]; 0.06 nM, single data point) is reported as 86.9%. For the same molecule, the “IVA Infectivity in A549 Cells” value ([3]; 0.06 nM, single data point) was 1.000, the “IAV Infectivity in A549 Cells (% Vehicle)” value ([3]; 0.32 nM, single data point) was 64.4% and the “IVA Infectivity in A549 Cells” value ([3]; 0.32 nM, single data point) was 0.828. The “IAV Infectivity in A549 Cells (% Vehicle)” value ([3]; 1.6 nM, single data point) was 17.7%, the “IVA Infectivity in A549 Cells” value ([3]; 1.6 nM, single data point) was 0.471 and the “IAV Infectivity in A549 Cells (% Vehicle)” value ([3]; 8.0 nM, single data point) was 6.1%. For the same molecule, the “IVA Infectivity in A549 Cells” value ([3]; 8.0 nM, single data point) was 0.383, the “IAV Infectivity in A549 Cells (% Vehicle)” value ([3]; 40 nM, single data point) was 5.6% and the “IVA Infectivity in A549 Cells” value ([3]; 40 nM, single data point) was 0.379. For the same molecule, the “IAV Infectivity in A549 Cells (% Vehicle)” value ([3]; 0.2 μM, positive control) was 6.0%, the “IVA Infectivity in A549 Cells” value ([3]; 0.2 μM, positive control, 48 hours, individual replicates, listed as BLX) was 0.383 and 0.391 and 0.374 and the “IAV Infectivity in A549 Cells (% Vehicle)” value ([3]; 200 nM, single data point) was 6.0%. For the same molecule, the “IVA Infectivity in A549 Cells” value ([3]; 200 nM, single data point) was 0.382, the “IAV Infectivity in A549 Cells (% Vehicle)” value ([3]; 1,000 nM, single data point) was 10.8% and the “IVA Infectivity in A549 Cells” value ([3]; 1,000 nM, single data point) was 0.419. The IC50 ([3]; Influenza A virus, H1N1, control antiviral, single data points, A549 cells, 48 hours, read-out: IC50, IAV Antiviral Assay) was 0.49 nM, the block of infection ([3]; at some concentrations tested) was “over 99%” and the “Viability in A549 cells (% Vehicle)” value ([4]; 0.2 μM) was 102.0 ± 2.4%.
For C[S+](C)[O-] [DMSO, Dimethyl sulfoxide], the “Viability of Uninfected Vero E6 Cells (% Vehicle)” value ([2]; 10%, cytotoxic agent control) was −0.2 ± 0.0%, the “Viability … (A540)” value ([2]; 10%, cytotoxic agent control) was 0.074 and 0.073 and the “block of cell viability” value ([2]; tested at 10%) was “more than 99%”.
In the case of polyphenylene carboxymethylene [PPCM], the “binding to gpB-2, which prevents herpes attachment and fusion” value [5] is given as “binds”, the “cell-to-cell transmission and primary infection by multiple clades of HIV-1” value [6] is given as “prevents” and the “inhibition of Ebola virus” value [7] is given as “inhibited”.
In the case of CC[C@H]1CN2CCc3cc(OC)c(OC)cc3[C@@H]2C[C@@H]1C[C@H]1NCCc2cc(OC)c(OC)cc21 [Emetine], the “inhibition of cell viability” value ([4]; 10 μM) is reported as “greater than 85%”, the “Viability in A549 cells (% Vehicle)” value ([4]; 10 μM, cytotoxic control) is reported as 14.0 ± 4.6% and the “Viability in A549 Cells (A490)” value ([4]; 10 μM, cytotoxic control, 48 hours, individual replicates) is reported as 0.236 and 0.179.
For N#C[C@@]1(c2ccc3c(N)ncnn23)O[C@H](CO)[C@@H](O)[C@H]1O [GS-441524], the “Inhibition … (%)” value ([1]; 0.03 μM, single data point) was −7.0%, the “Inhibition … (%)” value ([1]; 0.25 μM, single data point) was 51.9% and the “Inhibition … (%)” value ([1]; 0.74 μM, single data point) was 89.7%. For the same molecule, the “prevention of the virus-induced CPE” value ([1]; 1 μM) was “completely prevented”, the “Inhibition … (%)” value ([1]; 1 μM, positive control wells) was 112.3 ± 24.4% and the “Inhibition … (%)” value ([1]; 2.2 μM, single data point) was 89.9%. For the same molecule, the “Inhibition … (%)” value ([1]; 6.7 μM, single data point) was 96.3%, the “Inhibition … (%)” value ([1]; 10 μM, positive control wells) was 117.2 ± 5.4% and the “prevention of the virus-induced CPE of the infected cells” value ([1]; control inhibitor, concentration not given) was “prevented completely”. The IC50 ([1]; control inhibitor, single data points, Vero E6, 96 hours) was 170 nM, the “Viability … (A540)” value ([2]; 1 μM) was 1.404 and 1.753 and the “loss of viability in uninfected cells” value ([2]; 10 μM) was “no significant loss of viability”. For the same molecule, the “Viability … (A540)” value ([2]; 10 μM) was 1.616.
